Source: PMC10916560 (Food Science & Nutrition, 2023)
“Also recorded” adds a separate entry of the source.

system: not given; assay: not given; conditions: ref El-Hady et al., 2013; cited from earlier work

Structure (SMILES) | free-radical scavenging activity [%]
CC(C)=CCC[C@@H](C)[C@H]1CC[C@@]2(C)[C@@H]3CC[C@H]4C(C)(C)[C@@H](O)CC[C@@]45C[C@@]35CC[C@]12C [3β‐cycloartenol] | 59

system: AChE; assay: not given; conditions: read-out: AChE IC50; ref El-Hady et al., 2013; cited from earlier work

Structure (SMILES) | IC50 [µM]
CC(C)=CCC[C@@H](C)[C@H]1CC[C@@]2(C)[C@@H]3CC[C@H]4C(C)(C)[C@@H](O)CC[C@@]45C[C@@]35CC[C@]12C [3β‐cycloartenol] | 3.6 ± 0.1

system: not listed separately; assay: DPPH radical scavenging activity; assay type: biochemical; conditions: 0.2 mg/mL; mean ± SD, n = 3
Procedure: The DPPH scavenging activities of PWE and isolated compounds were determined according to the method described by Blois ([1958]). In the method, the stable DPPH radical is removed by the free‐radical scavenging activity of the sample. […] Then, the prepared DPPH solution (1 mL, […]) was added, followed by incubation for 30 min in the dark. After incubation, the DPPH elimination activity of the sample was measured spectrophotometrically (Necip et al., [2021]).

Structure (SMILES) | DPPH radical scavenging activity
O=C1c2c(O)cc(O)cc2O[C@H](c2ccccc2)[C@H]1O [Pinobanksin, pinobanksin] | 3.55 ± 0.6%
O=C1C[C@@H](c2ccccc2)Oc2cc(O)cc(O)c21 [Pinocembrin, pinocembrin] | Inactive
COc1cc2ccc(=O)oc2c(O)c1O [Fraxetin, fraxetin] | 81.11 ± 1.7%
O=c1c(O)c(-c2ccccc2)oc2cc(O)cc(O)c12 [Galangin, galangin] | 44.73 ± 1.8%
Cc1cc(C(C)(C)C)c(O)c(C(C)(C)C)c1 [BHT, reference compound] | 51.57 ± 1.5%
COc1ccc(O)c(C(C)(C)C)c1 [BHA, reference compound] | 80.20 ± 2.9%
O=c1cc(-c2ccccc2)oc2cc(O)cc(O)c12 [Chrysin, chrysin] | Inactive
Cc1c(C)c2c(c(C)c1O)CCC(C)(C(=O)O)O2 (stereo not drawn) [Trolox, trolox, reference compound] | 90.37 ± 3.8%
COc1cc(O)c2c(=O)cc(-c3ccc(O)cc3)oc2c1 [Genkwanin, genkwanin] | Inactive
O=c1cc(-c2ccc(O)cc2)oc2cc(O)cc(O)c12 [Apigenin, apigenin] | 79.02 ± 2.2%

same assay, conditions: DPPH and ABTS, 0.2 mg/mL

Structure (SMILES) | radical scavenging activity (in words)
COc1cc2ccc(=O)oc2c(O)c1O [Fraxetin, fraxetin] | highest radical scavenging activities

same assay, conditions: DPPH and ABTS, 0.2 mg/mL (200 μg/mL)

Structure (SMILES) | free-radical scavenging activity (DPPH and ABTS)
COc1cc2ccc(=O)oc2c(O)c1O [Fraxetin, fraxetin] | over 60%
O=c1c(O)c(-c2ccccc2)oc2cc(O)cc(O)c12 [Galangin, galangin] | over 60%
O=c1cc(-c2ccc(O)cc2)oc2cc(O)cc(O)c12 [Apigenin, apigenin] | over 60%

system: not listed separately; assay: CUPRAC cupric ions reducing assay; assay type: biochemical; conditions: 0.2 mg/mL; Figure 5
Procedure: (§1) The ferric cyanide (Fe^3+) reducing antioxidant power (FRAP) assay was performed using the modified method of the previously described Oyaizu method (Oyaizu, [1986]). The complex is formed when the method is reduced to the ferrous (Fe^2+) ion to ferric tripyridyl triazene (Fe^3+‐TPTZ) complex at 700 nm. It is based on the spectrophotometric measurement of the complex. The reduction capacity for cupric ions (Cu^2+) was determined by cupric ions reducing assay (CUPRAC) as previously described. A volume of 0.25 mL neocuproine (7.5 mM) in ethanol, 0.25 mL NH4Ac (1 M), and 0.25 mL CuCl2 (0.01 M) were mixed with isolated compounds, PWE, and different amounts of standards (10, 20, and 40 μg/mL).

Structure (SMILES) | metal reduction capacity, CUPRAC (in words)
COc1cc2ccc(=O)oc2c(O)c1O [Fraxetin, fraxetin] | metal reduction capacity close to the standards
O=c1cc(-c2ccc(O)cc2)oc2cc(O)cc(O)c12 [Apigenin, apigenin] | metal reduction capacity close to the standards

same assay, conditions: 0.2 mg/mL; Figure 5; listed as 15

Structure (SMILES) | metal reduction capacity, CUPRAC (in words)
O=c1c(O)c(-c2ccccc2)oc2cc(O)cc(O)c12 [Galangin, galangin] | high metal reduction activity; also recorded: metal reduction capacity close to the standards

system: not listed separately; assay: ABTS radical scavenging activity; assay type: biochemical; conditions: 0.2 mg/mL; mean ± SD, n = 3
Procedure: ABTS also forms a relatively stable free‐radical that removes color in its non‐radical form (Shirwaikar et al., [2006]). Spectrophotometric analysis of ABTS˙^+ scavenging activity was determined according to the Re method. In this method, the sample is added to the previously formed ABTS radical solution, and the amount of ABTS˙^+ remaining after a fixed time is spectrophotometrically at 734 nm. […] The absorbance was recorded 30 min after mixing, and the percentage of radical scavenging was calculated for each concentration compared to the blank sample without scavenger (Necip & Durgun, [2022]; Re et al., [1999]).

Structure (SMILES) | ABTS radical scavenging activity [%]
O=C1c2c(O)cc(O)cc2O[C@H](c2ccccc2)[C@H]1O [Pinobanksin, pinobanksin] | 15.63 ± 0.9
O=C1C[C@@H](c2ccccc2)Oc2cc(O)cc(O)c21 [Pinocembrin, pinocembrin] | 26.32 ± 1.3
COc1cc2ccc(=O)oc2c(O)c1O [Fraxetin, fraxetin] | 87.44 ± 3.8
O=c1c(O)c(-c2ccccc2)oc2cc(O)cc(O)c12 [Galangin, galangin] | 62.01 ± 1.9
Cc1cc(C(C)(C)C)c(O)c(C(C)(C)C)c1 [BHT, reference compound] | 58.06 ± 2.4
COc1ccc(O)c(C(C)(C)C)c1 [BHA, reference compound] | 93.62 ± 3.6
O=c1cc(-c2ccccc2)oc2cc(O)cc(O)c12 [Chrysin, chrysin] | 4.35 ± 0.7
Cc1c(C)c2c(c(C)c1O)CCC(C)(C(=O)O)O2 (stereo not drawn) [Trolox, trolox, reference compound] | 89.99 ± 3.2
COc1cc(O)c2c(=O)cc(-c3ccc(O)cc3)oc2c1 [Genkwanin, genkwanin] | 8.95 ± 0.8
O=c1cc(-c2ccc(O)cc2)oc2cc(O)cc(O)c12 [Apigenin, apigenin] | 59.41 ± 1.5

target: AChE from electrophorus electricus (Electrophorus electricus, UniProt O42275); assay: biochemical; conditions: not given
Procedure: Briefly, 50 μL of 5,5′‐dithio‐bis(2‐nitro‐benzoic) acid compound (DTNB) and 100 μL of Tris–HCl solution (1 M, pH 8.0) and 50 μL AChE from electrophorus electricus (5.32 × 10^−3 U) solution was incubated and stirred at 30°C for 15 min. Finally, the reaction was started by adding 50 μL of acetylthiocholine iodide (AChI), which was used as a substrate. Enzymatic hydrolysis of the substrate was recorded spectrophotometrically at a wavelength of 412 nm (Işık et al., [2020]; Wright & Plummer, [1973]). […] Percent inhibition values and IC50 values were determined using a graph (Kilic et al., [2020]).

Chain of AChE from electrophorus electricus (O42275 24-633): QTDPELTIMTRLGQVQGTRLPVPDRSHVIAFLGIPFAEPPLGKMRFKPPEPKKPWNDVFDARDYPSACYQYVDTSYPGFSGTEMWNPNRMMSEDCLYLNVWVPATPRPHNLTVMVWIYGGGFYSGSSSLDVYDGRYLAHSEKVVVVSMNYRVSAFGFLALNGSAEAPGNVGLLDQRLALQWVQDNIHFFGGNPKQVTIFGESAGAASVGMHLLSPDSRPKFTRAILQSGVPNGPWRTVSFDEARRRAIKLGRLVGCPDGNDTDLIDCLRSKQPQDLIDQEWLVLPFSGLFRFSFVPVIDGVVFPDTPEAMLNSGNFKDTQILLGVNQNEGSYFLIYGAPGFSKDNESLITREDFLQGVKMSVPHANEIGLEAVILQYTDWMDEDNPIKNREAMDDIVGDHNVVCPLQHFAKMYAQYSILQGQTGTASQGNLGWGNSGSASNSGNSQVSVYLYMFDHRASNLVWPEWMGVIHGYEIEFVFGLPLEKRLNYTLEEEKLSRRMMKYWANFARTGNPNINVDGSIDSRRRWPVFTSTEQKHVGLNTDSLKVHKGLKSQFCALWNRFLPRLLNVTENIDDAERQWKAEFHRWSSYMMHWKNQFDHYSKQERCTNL

Structure (SMILES) | IC50 [µM]
O=C1c2c(O)cc(O)cc2O[C@H](c2ccccc2)[C@H]1O [Pinobanksin, pinobanksin] | 450 ± 10
COc1cc2ccc(=O)oc2c(O)c1O [Fraxetin, fraxetin] | 730 ± 40
O=c1c(O)c(-c2ccccc2)oc2cc(O)cc(O)c12 [Galangin, galangin] | 790 ± 20
O=c1cc(-c2ccccc2)oc2cc(O)cc(O)c12 [Chrysin, chrysin] | 640 ± 20
COc1cc(O)c2c(=O)cc(-c3ccc(O)cc3)oc2c1 [Genkwanin, genkwanin] | 1150 ± 30
O=c1cc(-c2ccc(O)cc2)oc2cc(O)cc(O)c12 [Apigenin, apigenin] | 710 ± 30

same assay, conditions: isolated compounds; read-out: AChE (IC50)

Structure (SMILES) | IC50 [µM]
O=C1C[C@@H](c2ccccc2)Oc2cc(O)cc(O)c21 [Pinocembrin, pinocembrin] | 1100 ± 40

system: not listed separately; assay: FRAP metal reduction assay; assay type: biochemical; conditions: 0.2 mg/mL; Figure 5
Procedure: as §1

Structure (SMILES) | metal reduction capacity, FRAP (in words)
COc1cc2ccc(=O)oc2c(O)c1O [Fraxetin, fraxetin] | moderate metal reduction capacity
O=c1c(O)c(-c2ccccc2)oc2cc(O)cc(O)c12 [Galangin, galangin] | high metal reduction activity
O=c1cc(-c2ccc(O)cc2)oc2cc(O)cc(O)c12 [Apigenin, apigenin] | moderate metal reduction capacity

same assay, conditions: FRAP and CUPRAC, statement in discussion

Structure (SMILES) | metal-reducing capacity (in words)
COc1cc2ccc(=O)oc2c(O)c1O [Fraxetin, fraxetin] | high metal‐reducing capacity
O=c1c(O)c(-c2ccccc2)oc2cc(O)cc(O)c12 [Galangin, galangin] | high metal‐reducing capacity
O=c1cc(-c2ccc(O)cc2)oc2cc(O)cc(O)c12 [Apigenin, apigenin] | high metal‐reducing capacity
